Values after ≈ are worked out from the molar mass of the structure shown. Like-named read-outs stand apart in the source and are kept apart here.
How the values were obtained:
[1] = tested on: P 388 leukemia; assay: in vivo activity against P 388 leukemia (treatment i.p. on day 1 after tumor implantation)
[2] = tested on: HeLa cells; assay: in vitro test against HeLa cells; type: cell-based; conditions: Homo sapiens, read-out: ID50 on HeLa Cells
Experimental: The biological activity of the compounds according to the invention was tested in vitro against HeLa cells in comparison with daunorubicin and doxorubicin.
Compound ID50 on HeLa Cells (ng/ml)

IC50 ([2]; in vitro, HeLa cells)	SMILES	LTS (long term survivors) ([1]; 6.6 mg/kg)	T/C % ([1]; 6.6 mg/kg)	Toxicity ([1]; 6.6 mg/kg)	LTS (long term survivors) ([1]; 2.9 mg/kg)	Toxicity ([1]; 2.9 mg/kg)	LTS (long term survivors) ([1]; 4.4 mg/kg)	T/C % ([1]; 4.4 mg/kg)	Toxicity ([1]; 4.4 mg/kg)	IC50 ([2]; HeLa)	further results
0.036 µg/mL (≈ 0.0665 µM)	COc1cccc2c1C(=O)c1c(O)c3c(c(O)c1C2=O)C[C@@](O)(C(C)=O)C[C@@H]3O[C@H]1C[C@@H](N)[C@@H](OC)[C@H](C)O1 [3',4'-diepi-4'-O-methyl daunorubicin, 3',4'-diepi-4'-O-methyl-daunorubicin]	0/8	145%	0/8							LTS (long term survivors) ([1]; 10 mg/kg): 0/8; T/C % ([1]; 10 mg/kg): 154%; Toxicity ([1]; 10 mg/kg): 0/8; LTS (long term survivors) ([1]; 15 mg/kg): 0/18; Toxicity ([1]; 15 mg/kg): 0/18; LTS (long term survivors) ([1]; 22 mg/kg): 0/10; T/C % ([1]; 22 mg/kg): 222%; Toxicity ([1]; 22 mg/kg): 0/10; LTS (long term survivors) ([1]; 33 mg/kg): 1/10; T/C % ([1]; 33 mg/kg): 231%; Toxicity ([1]; 33 mg/kg): 2/10
0.0059 µg/mL (≈ 0.0106 µM)	COc1cccc2c1C(=O)c1c(O)c3c(c(O)c1C2=O)C[C@@](O)(C(=O)CO)C[C@@H]3O[C@H]1C[C@@H](N)[C@@H](OC)[C@H](C)O1 [3',4'-diepi-4'-O-methyl doxorubicin, 3',4'-diepi-4'-O-methyl-doxorubicin]	0/10	76%	10/10	0/10	2/10	0/10	109%	10/10		LTS (long term survivors) ([1]; 1.9 mg/kg): 0/10; T/C % ([1]; 1.9 mg/kg): 180%; Toxicity ([1]; 1.9 mg/kg): 0/10; T/C % ([1]; 2.9 mg/kg): 200%
	COc1cccc2c1C(=O)c1c(O)c3c(c(O)c1C2=O)C[C@@](O)(C(C)=O)C[C@@H]3O[C@H]1C[C@H](N)[C@H](O)[C@H](C)O1 [Daunorubicin, reference compound]	0/8	163%	3/8	0/18	0/18	0/18		0/18	0.014 µg/mL (≈ 0.0265 µM)	
	COc1cccc2c1C(=O)c1c(O)c3c(c(O)c1C2=O)C[C@@](O)(C(=O)CO)C[C@@H]3O[C@H]1C[C@H](N)[C@H](O)[C@H](C)O1 [Doxorubicin, reference compound]	0/10	233%	0/8			2/10	209%	0/8	0.0095 µg/mL (≈ 0.0175 µM)	
